From ChEMBL document CHEMBL4368904 (J Med Chem, 2019)
One block for each compound: values may come before it.

What was measured:
[1] = Oral bioavailability in CD1 mouse at 3 mg/kg; type: ADME, organism-based; conditions: in vivo
[2] = Toxicity in Sprague-Dawley rat assessed as reduction in heart rate at 3 mg/kg, ip; type: organism-based; conditions: in vivo
[3] = Elimination half life in CD1 mouse at 1 to 10 mg/kg, po; type: ADME, organism-based; conditions: in vivo
Mus musculus [4] = experiment: Induction of hypothermia in C57BL/6J mouse assessed as activity counts at 3 mg/kg, ip measured at 60 mins post dose (reference value: 15.5 +/- 5.5); type: functional
[5] = Toxicity in Sprague-Dawley rat assessed as increase in blood pressure at 3 mg/kg, ip; type: organism-based; conditions: in vivo
[6] = Protein binding in rat plasma; type: ADME, cell-free
Cytochrome P450 2D6 = Cytochrome P450 2D6 (Homo sapiens, UniProt P10635)
Cytochrome P450 2D6, sequence (P10635 whole entry): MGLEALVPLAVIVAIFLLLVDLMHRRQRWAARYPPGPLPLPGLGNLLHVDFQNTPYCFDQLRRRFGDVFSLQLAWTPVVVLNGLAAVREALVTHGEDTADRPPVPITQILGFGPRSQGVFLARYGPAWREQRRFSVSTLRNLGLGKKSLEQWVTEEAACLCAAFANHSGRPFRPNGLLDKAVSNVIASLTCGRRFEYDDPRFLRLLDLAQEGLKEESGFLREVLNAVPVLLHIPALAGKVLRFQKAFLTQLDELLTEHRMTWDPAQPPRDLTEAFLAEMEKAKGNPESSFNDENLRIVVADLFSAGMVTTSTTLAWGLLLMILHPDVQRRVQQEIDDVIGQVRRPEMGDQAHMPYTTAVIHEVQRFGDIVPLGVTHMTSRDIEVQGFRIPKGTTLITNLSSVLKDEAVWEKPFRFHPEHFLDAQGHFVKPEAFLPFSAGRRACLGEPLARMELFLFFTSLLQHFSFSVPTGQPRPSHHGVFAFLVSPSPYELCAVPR

Cytochrome P450 2C9 = Cytochrome P450 2C9 (Homo sapiens, UniProt P11712)
Cytochrome P450 2C9, sequence (P11712 whole entry): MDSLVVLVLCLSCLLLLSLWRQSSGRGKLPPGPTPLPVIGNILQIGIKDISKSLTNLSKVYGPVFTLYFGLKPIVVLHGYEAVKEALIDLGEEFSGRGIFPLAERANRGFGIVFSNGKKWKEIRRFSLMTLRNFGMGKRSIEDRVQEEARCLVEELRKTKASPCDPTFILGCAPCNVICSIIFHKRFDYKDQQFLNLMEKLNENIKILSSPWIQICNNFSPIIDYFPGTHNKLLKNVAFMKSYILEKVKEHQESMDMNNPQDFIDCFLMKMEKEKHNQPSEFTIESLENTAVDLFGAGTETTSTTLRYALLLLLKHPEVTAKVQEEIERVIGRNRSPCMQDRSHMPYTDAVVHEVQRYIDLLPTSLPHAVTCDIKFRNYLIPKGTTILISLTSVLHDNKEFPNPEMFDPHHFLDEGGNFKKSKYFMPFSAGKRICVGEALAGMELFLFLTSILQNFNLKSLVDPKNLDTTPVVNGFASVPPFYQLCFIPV

[7] = Stability in simulated gastric fluid after 120 mins; type: ADME; conditions: read-out: Stability
Cytochrome P450 3A4 = Cytochrome P450 3A4 (Homo sapiens, UniProt P08684)
Cytochrome P450 3A4, sequence (P08684 whole entry): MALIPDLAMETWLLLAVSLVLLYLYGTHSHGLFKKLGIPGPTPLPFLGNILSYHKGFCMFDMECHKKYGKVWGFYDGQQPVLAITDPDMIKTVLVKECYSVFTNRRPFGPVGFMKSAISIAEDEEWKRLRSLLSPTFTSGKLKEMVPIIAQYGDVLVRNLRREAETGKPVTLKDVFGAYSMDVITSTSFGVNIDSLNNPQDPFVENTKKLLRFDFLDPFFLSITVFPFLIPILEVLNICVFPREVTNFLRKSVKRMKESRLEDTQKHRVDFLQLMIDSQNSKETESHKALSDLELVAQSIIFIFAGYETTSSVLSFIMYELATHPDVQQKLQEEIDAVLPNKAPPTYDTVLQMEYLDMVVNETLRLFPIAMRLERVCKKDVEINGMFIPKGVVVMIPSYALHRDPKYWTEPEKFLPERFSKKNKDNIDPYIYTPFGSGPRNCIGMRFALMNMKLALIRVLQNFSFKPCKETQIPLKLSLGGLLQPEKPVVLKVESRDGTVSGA

[8] = Elimination half life in CD1 mouse at 3 to 30 mg/kg, ip; type: ADME, organism-based; conditions: in vivo
[9] = Protein binding in mouse plasma; type: ADME, cell-free
[10] = Toxicity in rhesus monkey at 1 to 3 mg/kg dosed in food treat measured up to 4 hrs post dose; type: organism-based, Macaca mulatta; conditions: in vivo, po
Mus musculus [11] = experiment: Induction of hypothermia in C57BL/6J mouse assessed as body temperature at 3 mg/kg, ip measured at 60 mins post dose (reference value: 36.3 +/- 0.8 degC); type: functional
Adenosine receptor A1 [12] = target: Adenosine receptor A1 (Rattus norvegicus, UniProt P25099); experiment: Agonist activity at rat A1A adenosine receptor expressed in CHO-K1 cell membranes incubated for 60 mins by [35S]GTPgammaS binding assay; type: functional
Adenosine receptor A1 (Rattus norvegicus, UniProt P25099), sequence (P25099 whole entry): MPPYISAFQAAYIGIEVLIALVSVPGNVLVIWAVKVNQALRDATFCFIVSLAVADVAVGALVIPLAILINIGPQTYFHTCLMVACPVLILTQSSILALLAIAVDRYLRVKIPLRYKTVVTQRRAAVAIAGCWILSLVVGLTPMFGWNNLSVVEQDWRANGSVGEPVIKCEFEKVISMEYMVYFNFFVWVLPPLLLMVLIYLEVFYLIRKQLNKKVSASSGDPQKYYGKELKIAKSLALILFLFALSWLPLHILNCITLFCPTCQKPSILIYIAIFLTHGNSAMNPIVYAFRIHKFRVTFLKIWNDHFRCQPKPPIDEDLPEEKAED

[13] = Stability in simulated intestinal fluid; type: ADME; conditions: simulated gi fluid
[14] = Stability in human liver microsomes; type: ADME, Microsome
[15] = Oral bioavailability in cynomolgus monkey at 1 mg/kg; type: ADME, organism-based, Macaca fascicularis; conditions: in vivo
Adenosine receptor A1 [16] = target: T1, Adenosine receptor A1 (Mus musculus, UniProt Q60612); experiment: Displacement of [3H]N6-R-phenylisopropyladenosine from mouse A1A adenosine receptor expressed in CHO cell membranes after 60 mins by scintillation proximity assay
T1 sequence (Q60612 whole entry): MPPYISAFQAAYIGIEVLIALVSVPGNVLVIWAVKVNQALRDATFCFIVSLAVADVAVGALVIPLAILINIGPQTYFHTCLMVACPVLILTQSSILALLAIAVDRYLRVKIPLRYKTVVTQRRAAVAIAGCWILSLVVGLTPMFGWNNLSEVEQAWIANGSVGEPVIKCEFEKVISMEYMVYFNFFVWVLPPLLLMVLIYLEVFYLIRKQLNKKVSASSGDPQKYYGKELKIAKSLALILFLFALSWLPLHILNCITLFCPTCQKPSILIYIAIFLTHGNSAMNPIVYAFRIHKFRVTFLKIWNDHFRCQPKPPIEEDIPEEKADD

[17] = Toxicity in cynomolgus monkey effect on clinical parameters at 0.5 mg/kg, iv or 1 mg/kg, po measured after 1 day post dose; type: organism-based, Macaca fascicularis; conditions: in vivo, 24 h
[18] = Oral bioavailability in CD1 mouse at 1 mg/kg; type: ADME, organism-based; conditions: in vivo
Adenosine receptor A1 [19] = target: T2, Adenosine receptor A1 (Homo sapiens, UniProt P30542); experiment: Displacement of [3H]N6-R-phenylisopropyladenosine from human A1A adenosine receptor expressed in CHO cell membranes after 60 mins by scintillation proximity assay
T2 sequence (P30542 whole entry): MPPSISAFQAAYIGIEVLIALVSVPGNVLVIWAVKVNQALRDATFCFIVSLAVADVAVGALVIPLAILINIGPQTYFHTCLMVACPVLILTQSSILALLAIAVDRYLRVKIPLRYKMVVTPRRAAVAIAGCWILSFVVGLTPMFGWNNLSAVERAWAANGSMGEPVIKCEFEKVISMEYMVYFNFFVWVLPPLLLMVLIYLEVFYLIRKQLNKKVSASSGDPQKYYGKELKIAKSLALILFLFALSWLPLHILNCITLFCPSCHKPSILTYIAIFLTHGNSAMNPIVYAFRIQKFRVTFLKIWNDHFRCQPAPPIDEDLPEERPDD

[20] = target: 5-hydroxytryptamine receptor 2B (Homo sapiens, UniProt P41595); experiment: Inhibition of 5HT2B (unknown origin)
5-hydroxytryptamine receptor 2B, sequence (P41595 whole entry): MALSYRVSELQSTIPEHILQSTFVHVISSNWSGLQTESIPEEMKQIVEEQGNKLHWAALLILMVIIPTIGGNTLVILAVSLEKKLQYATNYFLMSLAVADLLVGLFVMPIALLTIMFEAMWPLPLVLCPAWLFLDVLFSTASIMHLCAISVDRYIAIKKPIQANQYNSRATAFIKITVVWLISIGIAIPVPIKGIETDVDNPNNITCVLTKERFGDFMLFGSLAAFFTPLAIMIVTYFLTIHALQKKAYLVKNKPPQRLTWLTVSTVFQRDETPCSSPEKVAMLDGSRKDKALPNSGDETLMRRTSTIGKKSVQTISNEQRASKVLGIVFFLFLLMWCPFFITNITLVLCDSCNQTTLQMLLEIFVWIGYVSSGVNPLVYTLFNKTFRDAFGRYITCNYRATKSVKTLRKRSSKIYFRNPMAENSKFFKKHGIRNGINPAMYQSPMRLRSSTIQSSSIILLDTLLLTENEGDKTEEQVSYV

Adenosine receptor A3 [21] = target: T3, Adenosine receptor A3 (Homo sapiens, UniProt P0DMS8); experiment: Displacement of [125I]N6-(4-amino-3-iodobenzyl)adenosine-5-N-methyluronamide from human A3A adenosine receptor expressed in CHO cell membranes after 60 mins by scintillation proximity assay
T3 sequence (P0DMS8 whole entry): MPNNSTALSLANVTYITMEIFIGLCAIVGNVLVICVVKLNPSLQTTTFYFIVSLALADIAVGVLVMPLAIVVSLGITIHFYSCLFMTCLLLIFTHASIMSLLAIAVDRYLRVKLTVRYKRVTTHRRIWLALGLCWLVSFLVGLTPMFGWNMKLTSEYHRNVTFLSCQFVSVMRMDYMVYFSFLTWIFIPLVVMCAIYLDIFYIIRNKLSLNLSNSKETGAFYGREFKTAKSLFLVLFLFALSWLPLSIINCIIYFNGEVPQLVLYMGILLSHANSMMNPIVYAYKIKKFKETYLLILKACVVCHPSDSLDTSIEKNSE

[22] = target: T4, 5-hydroxytryptamine receptor 2C (Homo sapiens, UniProt P28335); experiment: Inhibition of 5HT2C (unknown origin)
T4 sequence (P28335 whole entry): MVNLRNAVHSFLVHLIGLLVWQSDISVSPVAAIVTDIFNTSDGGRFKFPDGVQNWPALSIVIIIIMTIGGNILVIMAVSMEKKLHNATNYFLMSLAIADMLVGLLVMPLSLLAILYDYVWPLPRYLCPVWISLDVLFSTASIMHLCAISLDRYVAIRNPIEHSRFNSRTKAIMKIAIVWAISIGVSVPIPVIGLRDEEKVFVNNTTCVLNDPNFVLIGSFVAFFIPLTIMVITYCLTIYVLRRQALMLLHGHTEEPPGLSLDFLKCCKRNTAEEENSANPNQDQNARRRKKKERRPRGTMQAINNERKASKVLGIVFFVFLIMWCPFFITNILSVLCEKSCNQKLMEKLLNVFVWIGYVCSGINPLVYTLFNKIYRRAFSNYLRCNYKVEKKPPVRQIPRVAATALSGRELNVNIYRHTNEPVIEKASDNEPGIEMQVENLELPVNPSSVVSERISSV

Adenosine receptor A2a = Adenosine receptor A2a (Homo sapiens, UniProt P29274); experiment: Displacement of [3H]2-[p-(2-carboxyethyl)phenylethylamino]-5-N-ethylcarboxamidoadenosine from human A2A adenosine receptor expressed in HEK293 cell membranes at 10 uM after 60 mins by scintillation proximity assay relative to adenosine 5-N-ethyluronamide
Adenosine receptor A2a, sequence (P29274 whole entry): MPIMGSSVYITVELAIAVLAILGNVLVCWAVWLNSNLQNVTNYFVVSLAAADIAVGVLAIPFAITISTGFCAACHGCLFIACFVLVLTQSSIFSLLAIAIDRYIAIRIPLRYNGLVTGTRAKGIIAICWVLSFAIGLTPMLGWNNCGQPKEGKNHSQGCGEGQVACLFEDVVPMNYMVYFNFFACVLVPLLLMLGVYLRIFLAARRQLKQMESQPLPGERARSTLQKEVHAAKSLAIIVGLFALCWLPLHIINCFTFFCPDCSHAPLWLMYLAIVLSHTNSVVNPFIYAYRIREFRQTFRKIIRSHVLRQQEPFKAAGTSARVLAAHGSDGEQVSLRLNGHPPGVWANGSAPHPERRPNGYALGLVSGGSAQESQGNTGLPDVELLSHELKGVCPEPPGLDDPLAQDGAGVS

[23] = target: Alpha-2A adrenergic receptor (Homo sapiens, UniProt P08913); experiment: Inhibition of alpha2a receptor (unknown origin)
Alpha-2A adrenergic receptor, sequence (P08913 whole entry): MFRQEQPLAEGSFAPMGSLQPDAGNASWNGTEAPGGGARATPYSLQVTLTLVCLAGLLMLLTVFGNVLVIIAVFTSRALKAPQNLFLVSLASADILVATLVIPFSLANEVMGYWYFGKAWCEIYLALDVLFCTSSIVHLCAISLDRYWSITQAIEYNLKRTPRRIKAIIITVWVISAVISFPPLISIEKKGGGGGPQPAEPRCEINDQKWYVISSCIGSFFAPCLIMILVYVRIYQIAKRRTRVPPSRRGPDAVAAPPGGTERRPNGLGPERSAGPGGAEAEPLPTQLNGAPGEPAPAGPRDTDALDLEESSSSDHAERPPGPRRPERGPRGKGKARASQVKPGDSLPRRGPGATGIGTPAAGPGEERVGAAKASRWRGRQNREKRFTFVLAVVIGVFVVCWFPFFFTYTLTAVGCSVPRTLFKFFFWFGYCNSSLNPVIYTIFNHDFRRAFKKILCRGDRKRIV

Adenosine receptor A3 [24] = target: T5, Adenosine receptor A3 (Mus musculus, UniProt Q61618); experiment: Displacement of [125I]N6-(4-amino-3-iodobenzyl)adenosine-5-N-methyluronamide from mouse A3A adenosine receptor expressed in CHO cell membranes after 60 mins by scintillation proximity assay
T5 sequence (Q61618 whole entry): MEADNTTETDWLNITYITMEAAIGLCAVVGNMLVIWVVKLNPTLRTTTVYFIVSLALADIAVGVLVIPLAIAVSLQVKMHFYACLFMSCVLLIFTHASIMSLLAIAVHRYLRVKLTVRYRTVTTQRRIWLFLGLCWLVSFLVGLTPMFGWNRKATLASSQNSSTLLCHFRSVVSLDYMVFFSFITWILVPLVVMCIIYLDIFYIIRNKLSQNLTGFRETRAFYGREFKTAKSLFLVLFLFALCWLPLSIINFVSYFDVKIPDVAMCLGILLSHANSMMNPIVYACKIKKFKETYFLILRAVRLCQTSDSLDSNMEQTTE

Translocator protein = Translocator protein (Homo sapiens, UniProt P30536); experiment: Inhibition of TSPO (unknown origin)
Translocator protein, sequence (P30536 whole entry): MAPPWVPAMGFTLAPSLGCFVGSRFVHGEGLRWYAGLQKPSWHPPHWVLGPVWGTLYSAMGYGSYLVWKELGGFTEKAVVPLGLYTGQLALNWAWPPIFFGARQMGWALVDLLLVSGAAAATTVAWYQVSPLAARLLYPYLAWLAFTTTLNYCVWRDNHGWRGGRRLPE

bioavailability [1]: 124%
beta t1/2 [3]: 5 to 11 h
PPB [6]: 90%
IC50 (Cytochrome P450 2D6): > 25 µM
IC50 (Cytochrome P450 2C9): > 25 µM
remaining at 2 h [7]: 51%
IC50 (Cytochrome P450 3A4): > 25 µM
beta t1/2 [8]: 2.5 to 4 h
PPB [9]: 94%
EC50 (Adenosine receptor A1 [12]): 0.00665 µM
Stability [13]: Stable
Stability [14]: Stable
F [15]: 24%
Ki (Adenosine receptor A1 [16]): 0.0052 µM
bioavailability [18]: 98%
Structure (SMILES): O[C@@H]1[C@H](O)[C@@H]2C[C@@H]2[C@H]1n1cnc2c(NC(C3CC3)C3CC3)nc(Cl)nc21
Activity [2]: Toxic
Activity (Mus musculus [4]): 5.5
Activity [5]: Toxic
Activity [10]: Non-Toxic
T (Mus musculus [11]): 33.4 °C
Activity [17]: Non-Toxic

Ki (Adenosine receptor A1 [19]): 0.961 µM
Ki [20]: 2.9 µM
Ki (Adenosine receptor A3 [21]): 0.822 µM
Ki [22]: 8.32 µM
inhibition (Adenosine receptor A2a): 46%
Ki [23]: 6.96 µM
Ki (Adenosine receptor A3 [24]): 0.385 µM
Ki (Translocator protein): 2.38 µM
Structure (SMILES): O[C@@H]1[C@H](O)[C@@H]2C[C@@H]2[C@H]1n1cnc2c(NC(C3CCC3)C3CCC3)nc(Cl)nc21
